Experimental data published in publication PMC5691623 (Viruses, 2017).

Legend:
[1] = in vitro; details: human
[2] = tested on: IAV; assay: microbe, parasite or virus in culture; type: cell-based, Human influenza A/Udorn/307/1972 (H3N2); details: for EC50: Influenza A virus, RPE
[3] = tested on: IAV-infected RPE and A549 cells; type: cell-based, human
[4] = set-up: method as in earlier work; details: cited from earlier work
[5] = tested on: RPE or A549 cells treated with bacterial lipopolysaccharides (LPS); assay: Death of cells treated with bacterial LPS; type: cell-based, human; details: LPS 10 µg/ml
[6] = tested on: mock-infected RPE cells; details: human
[7] = tested on: vRNA-transfected RPE cells; type: cell-based, human
[8] = tested on: MERS-CoV; type: cell-based; details: Vero cells, 24 hpi, moi 0.1
[9] = tested on: IAV-infected RPE cells; type: cell-based, human
[10] = tested on: IAV-infected RPE cells; type: cell-based, human; remark: listed apart in the source

| Structure (SMILES) | CC50 [1] [nM] | effect on viral replication [2] | EC50 [2] [nM] | rescue from ABT-263-mediated premature death [3] | other results |
| --- | --- | --- | --- | --- | --- |
| Cc1c(-c2ccc(N3CCc4cccc(C(=O)Nc5nc6ccccc6s5)c4C3)nc2C(=O)O)cnn1CC12CC3CC(CC(C3)C1)C2 [A-1331852] | 50 | limited viral replication | < 10 | – | – |
| Nc1ccn([C@@H]2O[C@H](CO)[C@@H](O)C2(F)F)c(=O)n1 [gemcitabine] | – | – | – | rescued | – |
| O=C(O)[C@H]1C2CCC(CC2)[C@@H]1Nc1nc(-c2c[nH]c3ncc(F)cc23)ncc1F [JNJ-872] | – | – | – | rescued | – |
| CN(C)CC#Cc1ccc(OCCCc2sc(N3CCc4cccc(C(=O)Nc5nc6ccccc6s5)c4C3)nc2C(=O)O)c(F)c1 [A-1155463] | 60 | limited viral replication | < 10 | – | side effect in animals [4]: reversible thrombocytopenia |
| C[C@H]1C/C=C/Cc2cccc(O)c2C(=O)O[C@@H](C/C=C/NC(=O)C#Cc2ccccc2)C[C@H]1O [SaliPhe, Saliphenylhalamide] | – | – | – | rescued | – |
| CN(C)CC[C@H](CSc1ccccc1)Nc1ccc(S(=O)(=O)NC(=O)c2ccc(N3CCN(Cc4ccccc4-c4ccc(Cl)cc4)CC3)cc2)cc1[N+](=O)[O-] [ABT-737] | 350 | limited viral replication | 280 | – | – |
| CC1(C)CCC(CN2CCN(c3ccc(C(=O)NS(=O)(=O)c4ccc(NCC5CCOCC5)c([N+](=O)[O-])c4)c(Oc4cnc5[nH]ccc5c4)c3)CC2)=C(c2ccc(Cl)cc2)C1 [ABT-199] | 4640 | – | 3710 | – | – |
| COC1=CC(c2cc3ccccc3[nH]2)=N/C1=C\c1[nH]c(C)cc1C [Obatoclax, obatoclax] | – | – | – | rescued | – |
| CC1(C)CCC(c2ccc(Cl)cc2)=C(CN2CCN(c3ccc(C(=O)NS(=O)(=O)c4ccc(N[C@H](CCN5CCOCC5)CSc5ccccc5)c(S(=O)(=O)C(F)(F)F)c4)cc3)CC2)C1 [ABT-263] | 800 | limited viral replication | 80 | – | death of LPS-treated cells [5]: did not accelerate the death; time without toxicity in mock-infected cells [6]: at least 36 h; death of vRNA-transfected cells [7]: kills vRNA-transfected (160 ng) but not mock-transfected RPE cells; PFU/ml [2]: 0.01x10^6 PFU/ml; Virus titer FC (log10) [2]: 2.0±0.2 log10; effect on MERS-CoV replication [8]: blocks MERS-CoV replication; time post infection at which premature death of infected cells was observed [9]: ≤ 12 h; ΔAUC CTG [9]: 9.9; ΔAUC CTxG [10]: 2.5 |
